Legend:
[1] = test system: Phytophthora infestans (Plant affected: barley); assay type: in vivo; details: concentration at which an efficacy of 50% was achieved, protective
[2] = test system: Phytophthora infestans (Plant affected: tomato); assay type: in vivo; details: concentration at which an efficacy of 50% was achieved, protective
[3] = target: farnesyl-pyrophosphate synthase (Saccharomyces cerevisiae, UniProt P08524); assay: farnesyl-pyrophosphate synthase inhibition assay (coupled assay, malachite green, 384-well MTP); assay type: biochemical; details: read-out: p150 (converted)
Excerpt: A preferred method exploits the fact that two pyrophosphate molecules are liberated in the farnesyl-pyrophosphate synthase reaction. The activity, or the decrease or increase in activity, of the polypeptide according to the invention can thus be determined by enzymatically cleaving the pyrophosphate by means of inorganic pyrophosphatase and subsequently detecting the orthophosphate which has been liberated, using a phosphate detection reagent. The lower, or inhibited, activity of the polypeptide according to the invention is monitored with reference to the photospectrometric determination of the decrease or increase, of the orthophosphate which has been liberated. The concentration of phosphate which has been liberated can then be determined with a phosphate detection reagent at an absorption maximum at 620 nm.
The measurement can also be carried out in formats conventionally used for HTS or UHTS assays, for example in microtitre plates, into which for example a total volume of 5 to 50 μl is introduced per reaction or per well and the individual components are present in one of the above-stated final concentrations (cf. Example 2). […] The polypeptide according to the invention is then added in the abovementioned assay buffer containing the auxiliary enzyme inorganic pyrophosphatase, which is required for the coupled assay, thus starting the reaction. The mixture is then incubated for example for up to 40 minutes at a suitable temperature, and the increase in absorption is measured at 620 nm.
A further measurement is carried out in a corresponding mixture, but without addition of a candidate molecule and without addition of a polypeptide according to the invention (negative control). Another measurement, in turn, is carried out in the absence of a candidate molecule, but in the presence of the polypeptide according to the invention (positive control). The negative and the positive controls thus provide the reference values for the mixtures in the presence of a candidate molecule.
A pI50 value of 8, for example, corresponds to half the maximum inhibition of the enzyme at a concentration of 10 nM.
384-well microtitre plates from Greiner were used for identifying farnesyl-pyrophosphate synthase modulators.
The negative control was pipetted into the first column.
The positive control was pipetted into the second column.
A test substance in a concentration of 2 μM in DMSO was introduced into the remaining columns, 5 μl of the assay buffer being used for diluting the substance to a volume of. […] This was followed by incubation at room temperature for 40 minutes. The reaction was subsequently quenched by addition of 50 μl of malachite green solution (three parts of 0.025% malachite green solution (in water) were mixed with one part of 2% ammonium heptamolybdate solution (in 4 M HCl) and 39 parts of this solution were mixed with one part of 7.5% Tween 20 (in water) immediately prior to testing) and the mixture was incubated for 90 minutes at room temperature. The orthophosphate generated during the reaction was measured by determining the absorption at 620 nm in a Tecan […]luor Plus suitable for MTPs.

[4] = test system: Pyricularia oryzae (plant affected: rice); assay type: in vivo; details: concentration for 50% efficacy, protective
[5] = test system: Sphaerotheca fuliginea (plant affected: cucumber); assay: protective action for plants (spray, inoculation); assay type: in vivo; details: concentration for 50% efficacy
Description: (§1) The effect, on fungi, of compounds found with the aid of a method according to the invention can also be assayed by testing their protective action for plants. To this end a suitable active substance preparation is prepared. For example 1 part by weight of active substance is mixed with, for example, 24.5 parts by weight of acetone and 24.5 parts by weight of dimethylformamide and 1 part by weight of alkylaryl polyglycol ether as emulsifier, and the concentrate is diluted to the desired concentration.
(§2) To test for protective action, young plants are sprayed with the active substance preparation. After the spray coating has dried on, the plants are inoculated with an aqueous suspension (conidia suspension) of a fungus and then remain for 1 day in an incubation chamber at approximately 20° C. and 100% relative atmospheric humidity.
(§3) The plants are then placed in a greenhouse at approx. 12° C. and a relative atmospheric humidity of approx. 90%.
(§4) The test is evaluated 1 to 12 days after the inoculation. 0% means an efficacy which corresponds to that of the control, while an efficacy of 100% means that no disease is observed.
(§5) The examples in question can be seen from the fact that an affected plant has been stated.

[6] = test system: Alternaria solani (plant affected: tomato); assay: protective action for plants (spray, inoculation); assay type: in vivo; details: concentration for 50% efficacy
Description: as §1, §2, §3, §4, §5

[7] = test system: Erysiphe graminis (plant affected: barley); assay: protective action for plants (spray, inoculation); assay type: in vivo; details: concentration for 50% efficacy
Description: as §1, §2, §3, §4, §5

[8] = test system: Leptosphaeria nodorum (plant affected: wheat); assay: protective action for plants (spray, inoculation); assay type: in vivo; details: concentration for 50% efficacy
Description: as §1, §2, §3, §4, §5

[9] = target: yeast farnesyl-pyrophosphate synthase (Saccharomyces cerevisiae, UniProt P08524); details: substrate of yeast farnesyl-pyrophosphate synthase
[10] = substrate: C=C(C)CCO[P@@](=O)(O)OP(=O)(O)O; assay: purified protein, by the assay type; details: other: substrate of yeast farnesyl-pyrophosphate synthase

CC(C)(CN)CN(C(=O)c1cccs1)c1ccc(-c2ccc(N3CCN(c4ccccn4)CC3)c(NC(=O)CCC3CCCC3)c2)cc1 [Example 4]
ED50 [1]: 500 ppm | ED50 [2]: 500 ppm | IC50 [3]: 39.8 µM

CC(Oc1ccccc1)C(=O)Nc1cc(C(=O)N[C@@H](Cc2ccccc2)C(=O)O)ccc1N1CCN(C(c2ccccc2)c2ccccc2)CC1 (some centres unmarked) [Example 3]
ED50 [1]: 500 ppm | ED50 [2]: 500 ppm | IC50 [3]: 31.6 µM

CC(=O)Nc1nc(-c2ccccc2OCC(N)=O)cc(-c2cccc(NC(=O)c3ccc([N+](=O)[O-])cc3)c2)c1C#N [Example 2]
IC50 [3]: 31.6 µM

CC(=O)[n+]1ccc(-c2cc[n+](C(C)=O)cc2)cc1 [Example 1]
IC50 [3]: 7.41 µM

COc1ccc(CN(CC(C)(C)CN)C(=O)c2cccc(C)c2)cc1-c1ccc(N2CCC(Cc3ccccc3)CC2)c(NC(=O)c2cccs2)c1 [Example 5]
ED50 [4]: 548 ppm | ED50 [5]: 548 ppm | ED50 [6]: 548 ppm | ED50 [7]: 548 ppm | ED50 [8]: 548 ppm | ED50 [2]: 548 ppm | IC50 [3]: 25.1 µM

CC(C)=CCOP(=O)(O)OP(=O)(O)O [dimethylallyl pyrophosphate]
Km [9]: 36 µM

B1: yeast farnesyl-pyrophosphate synthase (Saccharomyces cerevisiae S288C) (protein)
chain: MASEKEIRRERFLNVFPKLVEELNASLLAYGMPKEACDWYAHSLNYNTPGGKLNRGLSVVDTYAILSNKTVEQLGQEEYEKVAILGWCIELLQAYFLVADDMMDKSITRRGQPCWYKVPEVGEIAINDAFMLEAAIYKLLKSHFRNEKYYIDITELFHEVTFQTELGQLMDLITAPEDKVDLSKFSLKKHSFIVTFKTAYYSFYLPVALAMYVAGITDEKDLKQARDVLIPLGEYFQIQDDYLDCFGTPEQIGKIGTDIQDNKCSWVINKALELASAEQRKTLDENYGKKDSVAEAKCKKIFNDLKIEQLYHEYEESIAKDLKAKISQVDESRGFKADVLTAFLNKVYKRSK
Km [10]: 49 µM
